From patent US4120864A, “1,2,4-4H-triazole derivatives” (Rohm and Haas Company, priority 1972, dated 1978)
Where two headings read alike, the source gives them in different places.

Legend:
[1] = test system: wheat leaf rust, Puccinia recondita; assay: whole plant or invertebrate; format: in vivo; conditions: foliar; for pest or weed control at 280.212 g/ha: read-out: % Control (without rain), foliar, 0.25 lb.; for pest or weed control at 1120.85 g/ha: read-out: % Control (without rain), foliar, 1 lb.
[2] = test system: wheat leaf rust, Puccinia recondita; assay: whole plant or invertebrate; format: in vivo; conditions: foliar; for pest or weed control at 280.212 g/ha: read-out: % Control (with 1" of rain), foliar, 0.25 lb., 1" of rain; for pest or weed control at 1120.85 g/ha: read-out: % Control (with 1" of rain), foliar, 1 lb., 1" of rain

Row | SMILES | pest or weed control at 280.212 g/ha [1] | pest or weed control at 1120.85 g/ha [1] | pest or weed control at 280.212 g/ha [2] | pest or weed control at 1120.85 g/ha [2]
1 | c1nc(-n2cnnc2)n[nH]1 [Example 66, 4-(3-(1,2,4-triazy)-1,2,4-triazole] | 100% | 100% | 99% | –
2 | c1cnc(-n2cnnc2)nc1 [Example 67, 4-(2-pyrimidyl)-1,2,4-triazole] | 94% | 87% | – | 97%
3 | c1csc(-n2cnnc2)n1 [Example 68, 4-(2-thiazyl)-1,2,4-triazole] | 66% | 73% | 67% | 96%
4 | c1ccc2sc(-n3cnnc3)nc2c1 [Example 69, 4-(2-benzothiazyl)-1,2,4-triazole] | 100% | 100% | 98% | 98%
5 | Clc1cccc2sc(-n3cnnc3)nc12 [Example 70] | 100% | 100% | 100% | –
6 | c1ccc2[nH]c(-n3cnnc3)nc2c1 [Example 71, 4-(2-benzimidazolyl)-1,2,4-triazole] | 10% | 20% | 0% | 0%
7 | Cn1cnnc1S [Example 73, 3-mercapto-4-methyl-1,2,4-triazole] | 34% | 50% | 0% | 10%
8 | CCn1cnnc1S [Example 74, 3-mercapto-4-ethyl-1,2,4-triazole] | 40% | 60% | 0% | 0%
9 | CC(C)(C)n1cnnc1S [Example 77, 3-mercapto-4-t-butyl-1,2,4-triazole] | 68% | 100% | 57% | 80%
10 | CCCCCCCCn1cnnc1S [Example 80, 3-mercapto-4-n-octyl-1,2,4-trizole] | 100% | 100% | 51% | 65%
11 | CC(C)(C)CC(C)(C)n1cnnc1S [Example 81, 3-mercapto-4-t-octyl-1,2,4-triazole] | 100% | 100% | 53% | 86%
12 | CCCCCCCCCCn1cnnc1S [Example 82, 3-mercapto-4-n-decyl-1,2,4-triazole] | 61% | 78% | 46% | 72%
13 | Sc1nncn1C1CCCCC1 [Example 83, 3-mercapto-4-cyclohexyl-1,2,4-triazole] | 44% | 34% | 100% | 98%
14 | Sc1nncn1-c1ccccc1 [Example 85, 3-mercapto-4-phenyl-1,2,4-triazole] | 80% | 85% | 72% | 90%
15 | Cn1c(O)nnc1S [Example 86, 3-mercapto-4-methyl-5-hydroxy-1,2,4-triazole] | 96% | 99% | 63% | 63%
16 | CCCCn1c(O)nnc1S [Example 87, 3-mercapto-4-n-butyl-5-hydroxy-1,2,4-triazole] | 15% | 49% | 0% | 0%
17 | Oc1nnc(S)n1-c1ccccc1 [Example 88, 3-mercapto-4-phenyl-5-hydroxy-1,2,4-triazole] | 73% | 80% | 98% | 100%
18 | CCCCn1c(C)nnc1S [Example 89, 3-mercapto-4-n-butyl-5-methyl-1,2,4-triazole] | 26% | 51% | 57% | 80%
19 | Cn1c(S)nnc1-c1ccco1 [Example 90, 3-mercapto-4-methyl-5-(2-furyl)-1,2,4-triazole] | 0% | 28% | 80% | 87%

Row | SMILES | pest or weed control at 280.212 g/ha [1] | pest or weed control at 1120.85 g/ha [1] | pest or weed control at 280.212 g/ha [2] | pest or weed control at 1120.85 g/ha [2]
20 | CCCCn1c(S)nnc1-c1ccco1 [Example 91, 3-mercapto-4-n-butyl-5-(2-furyl)-1,2,4-triazole] | 41% | 72% | 100% | 100%
21 | Sc1nnc(-c2ccco2)n1-c1ccccc1 [Example 92, 3-mercapto-4-phenyl-5-(2-furyl)-1,2,4-triazole] | 100% | 81% | 100% | 87%
22 | Cn1c(S)nnc1C(=O)O [Example 93, 3-mercapto-4-methyl-5-carboxy-1,2,4-triazole] | 65% | 94% | 0% | 0%
23 | COC(=O)c1nnc(S)n1C [Example 96, 3-mercapto-4-methyl-5-methoxycarbonyl-1,2,4-triazole] | 90% | 98% | 0% | 5%
24 | CCCCn1cnnc1SC [Example 102, 3-methylmercapto-4-n-butyl-1,2,4-triazole] | 100% | 100% | 51% | 51%
25 | CCCCSc1nncn1CCCC [Example 103, 3-n-butylmercapto-4-n-butyl-1,2,4-triazole] | 50% | 90% | 50% | 80%
26 | CCCCCCCCCCSc1nncn1CCCC [Example 104, 3-n-decylmercapto-4-butyl-1,2,4-triazole] | 80% | 98% | 45% | 98%
27 | C=CCSc1nncn1CCCC [Example 105, 3-allylmercapto-4-n-butyl-1,2,4-triazole] | 50% | 95% | 50% | 90%
28 | C=CCOCCSc1nncn1CCCC [Example 108, 3-(2-allyloxyethylmercapto)-4-n-butyl-1,2,4-triazole] | 35% | 85% | 25% | 40%
29 | CCCCn1cnnc1SCCOc1ccccc1 [Example 109, 3-(2-phenoxyethylmercapto)-4-n-butyl-1,2,4-triazole] | 100% | 100% | 96% | 100%
30 | CCCCn1cnnc1SC(C)=O [Example 115, 3-acetylmercapto-4-n-butyl-1,2,4-triazole] | 99% | 100% | 90% | 95%
31 | CCCCn1cnnc1SC(=O)COC [Example 116, 3-methoxyacetylmercapto-4-n-butyl-1,2,4-triazole] | 100% | 100% | 95% | 99%
32 | CCCCn1cnnc1SC(=O)CCC [Example 117, 3-butyrylmercapto-4-n-butyl-1,2,4-triazole] | 100% | 100% | 95% | 99%
33 | CCCCn1cnnc1SC(=O)c1ccccc1Br [Example 118, 3-(2-bromobenzoylmercapto)-4-n-butyl-1,2,4-triazole] | 100% | 100% | 100% | 100%
34 | CCCCn1cnnc1SC(=O)c1ccc(Br)cc1 [Example 119, 3-(4-bromobenzoylmercapto)-4-n-butyl-1,2,4-triazole] | 100% | 100% | 100% | 100%
35 | CCCCn1cnnc1SC(=O)c1cc(Cl)cc(Cl)c1 [Example 120, 3-(3,5-dichlorobenzoylmercapto)-4-n-butyl-1,2,4-triazole] | 100% | 100% | 98% | 98%
36 | CCCCn1cnnc1SC(=O)c1cccc([N+](=O)[O-])c1 [Example 122, 3-(3-nitrobenzoylmercapto)-4-n-butyl-1,2,4-triazole] | 100% | 100% | 100% | 100%
37 | CCCCn1cnnc1SC(=O)c1cc(OC)c(OC)c(OC)c1 [Example 123, 3-(3,4,5-trimethoxybenzoylmercapto)-4-n-butyl-1,2,4-triazole] | 98% | 100% | 90% | 98%
